Reference: article PMC9781916, “Antipsychotic- and Anxiolytic-like Properties of a Multimodal Compound JJGW08 in Rodents” (International Journal of Molecular Sciences, 2022)

Columns and labels:
5-HT2A receptors = system: 5-HT2A receptors; set-up: method as in doi:10.1016/j.molstruc.2022.134585; details: cited from earlier work
mice [1] = assay: Marble burying test in mice; type: in vivo
Protocol: Figure 3 The effect of JJGW08 and aripiprazole on the number of buried marbles by mice. Mice were placed individually in cages with a 5 cm bedding layer, where 20 glass balls were placed. The number of buried marbles after 30 min of the test was counted. JJGW08 was administered intraperitoneally (ip) 30 min before the test. The control group received 0.9% NaCl solution (ip) or 1% Tween (ip) for aripiprazole. Values are expressed as means ± SD in the case of one-way ANOVA (aripiprazole) or median with interquartile range in the case of Kruskal–Wallis test (JJGW08), n = 8–10 mice per group. Statistical analysis: one-way ANOVA (Newman–Keuls post hoc), and Kruskal–Wallis test (Dunn post hoc), * p < 0.05, ** p < 0.01, *** p < 0.001.
The test was conducted according to the method described by Broekkamp et al. with minor modifications. Mice were placed individually in plastic cages, identical to their home cages, that contained a layer of bedding and 20 glass balls (1.6 cm in diameter) arranged in a pattern 4 × 5. After 30 min of the experiment, the mice were removed from the cages, and the number of balls buried to at least 2/3 of their size was counted.

5-HT7 receptors = system: 5-HT7 receptors; set-up: method as in doi:10.1016/j.molstruc.2022.134585; details: cited from earlier work
mice [2] = assay: MK-801-induced hyperlocomotion test in mice; type: in vivo; details: doses 0.15–2.5 mg/kg ip, MK-801 0.2 mg/kg ip
Protocol: Locomotor activity was recorded in actometers separately for each mouse. After 30 min of adaptation, the number of crossings of photo beams was measured during 60 min. […] MK-801 (0.2 mg/kg, ip) was administered 15 min before the experiment, while amphetamine (2.5 mg/kg) was administered subcutaneously (sc) 30 min before the experiment. […] Values are expressed as means ± SD, n = 8–10 mice per group. Statistical analysis: one-way ANOVA (Newman–Keuls post hoc), * p < 0.05, ** p < 0.01, *** p < 0.001.
The test was performed according to the method described by Carlsson et al.. The mobility of the animals was measured in actometers, i.e., in plastic Opto M3 cages (22 × 12 × 13 cm) connected to a computer with MultiDevice Software v.1.30 (Columbus Instruments, Columbus, OH, USA). The experimental cages were equipped with infrared sources on one side and sensors receiving the emitted rays on the other side of the cage. The crossing of each beam of infrared rays was classified as motor activity. The animals were placed individually in experimental cages immediately after administration of the tested compound, 30 min before the start of the test, to adapt to the new conditions and exclude the occurrence of hyperactivity caused by the change of the environment. Spontaneous locomotor activity was measured every 5 min for 60 min. Mice received two injections: of the tested compound or reference substance (30 min before the test, ip) and of amphetamine (2.5 mg/kg, 30 min before the test, sc) or MK-801 (0.2 mg/kg, 15 min before the test, ip). Control groups received an injection of saline and amphetamine or MK-801, or two injections of saline, respectively. Olanzapine was used as a reference compound.

rats = assay: Prepulse inhibition test after MK-801 in rats; type: in vivo; details: 3.0–30 mg/kg ip, MK-801 0.6 mg/kg ip
Protocol: Figure 5 The influence of JJGW08 on startle response inhibition (Panel (A)) and changes in startle response (Panel (B)) in prepulse inhibition test after MK-801 administration in rats. The test was conducted in the soundproof apparatus, and the startle response amplitude was recorded. The experimental session (after a 5-min habituation period) had strictly defined parameters (prepuls-and-pulse trials: 84/120–prepuls 84 dB (20 ms), pulse 120 dB (40 ms); 90/120–prepuls 90 dB (20 ms), pulse 120 dB (40 ms), sham stimulus (70 dB, 40 ms)), and the startle intensity for each stimulus used in the session was measured. JJGW08 was administered ip 30 min before the test, while MK-801 (0.6 mg/kg) was administered ip 15 min before the start of the experiment. The control group received 0.9% NaCl solution (ip) and MK-801 (0.6 mg/kg, ip). Values are expressed as mean ± SD, n = 7–8 rats per group. […]
The study was conducted as described in detail by Acewicz and colleagues. […] Startle responses, reflecting the motion of animals in the cylinder following the acoustic stimulus, were detected by a piezoelectric transducer mounted below the frame. […] Sound levels in the chambers were measured and calibrated with a sound meter. […] Startle responses were measured for 100 ms after the onset of the last stimulus within each trial. […]

Question: With COc1ccccc1N1CCN(CCCCCOc2ccccc2C(N)=O)CC1.Cl [JJGW08, 2-{5-[4-(2-metoksyfenylo)piperazin-1-ylo]pentoxy}benzamide hydrochloride] as the molecule, how does the “affinity (in words)” value (5-HT2A receptors) read?
Answer: moderate affinity

Question: And the “reduction of the number of buried marbles” value (mice [1]; 1.25 mg/kg ip)?
Answer: 65%

Question: What about the “reduction of the number of buried marbles” value (mice [1]; 2.5 mg/kg ip) of the same molecule?
Answer: 84%

Question: And the “affinity (in words)” value (5-HT7 receptors)?
Answer: moderate affinity

Question: What about the “reduction of MK-801-induced hyperactivity” value (mice [2]) of the same molecule?
Answer: 24–71%

Question: And the “reversal of deficits in sensorimotor gating induced by MK-801 (in words)” value (rats)?
Answer: did not reverse the deficits

Question: What about the “startle reaction inhibition (%PPI)” value (rats; prepulse 84 or 90 dB) of the same molecule?
Answer: −0.2 to 24.4%
